Test results taken from paper PMC12138128 (Acta Pharmaceutica Sinica. B, 2025).
pIC50: −log10 of the molar value.

Assays:
U87 cells = test: CCK-8 cell proliferation assay, U87; assay type: cell-based; conditions: Homo sapiens, U-87 MG, 72 h, CCK-8, 72 h; read-out: IC50, U87 proliferation inhibition
Experimental: The effects on cell proliferation were measured using a CCK-8 assay kit. A total of 3 × 10^3 cells were seeded per well in 96-well plates and incubated for 24, 48, or 72 h after drug administration. After 10 μL of CCK-8 solution was added to each well and incubated at 37 °C for 1–2 h, the absorbance at OD450 was read with an enzyme marker. The data were recorded and analyzed by GraphPad Prism software (version 8.0.2). For the cell growth assay, 2 × 10^3 cells were seeded per well in 96-well plates (n = 5). Ten microlitres of CCK-8 reagent was added at a fixed time every day, and the OD450 was read after 2 h. The statistical data were analyzed, and cell growth curves were plotted after a continuous period of 7 days.

[1] = cited from earlier work
NAD^+ in U87 cells = test: Measurement of NAD+ levels in U87 cells; assay type: cell-based, human; conditions: 10 nmol/L, compared with PF403
From the text: NAD^+ is a coenzyme found in all cells and consists of both NAD^+ (oxidized) and NADH (reduced) forms. NAD^+ can be used to transfer electrons during redox reactions and as a substrate used by many enzymes to participate in intracellular reactions. We used an NAD^+/NADH assay kit (Beyotime, S0175, Shanghai, China) based on the WST-8 method to determine the NAD^+/NADH content. Cells in 6-well plates were collected and lysed with NAD^+/NADH extract on ice, and the supernatant was used as the sample to be tested. A control solution with a gradient concentration of NADH was prepared with a 10 mmol/L NADH standard. The supernatant from the sample was first aspirated and used to determine the total amount of NAD^+ and NADH. Subsequently, the sample was heated at 60 °C for 30 min to remove the NAD^+, after which the supernatant was collected to determine the NADH concentration. Ethanol dehydrogenase was added to each well, and the plate was incubated at 37 °C in the dark for 10 min. Then, 10 μL of chromogenic solution was added, and the plate was incubated for 30 min. Afterward, the absorbance at 450 nm was measured, and the content was calculated by comparison with the standard curve. The content of NAD^+ was calculated by subtracting the content of NADH from the total amount.

U87 xenograft = U87 xenograft model in nude mice; assay type: in vivo, nude mice (BALB/c-nude); conditions: for inhibitory effect in terms of tumor weight / inhibitory effect based on tumor volume: i.g.; for inhibitory effect in terms of tumor weight: 14th day; for inhibitory effect based on tumor volume: daily for 14 days
Experimental: (§1) Six-week-old female athymic nude mice (BALB/c-nude) were obtained from GemPharmatech (Beijing, China). U87 cells (3 × 10^6 cells per animal) were injected into the rear right armpit of nude mice to generate xenograft tumors. Seven to ten days after injection, the tumors were visible to the naked eye (approximately 100 mm^3), and the mice were randomized into five groups (12 mice per group). The PF403 treatment groups were administered different doses of PF403 once daily via intragastric gavage (low dose, 3 mg/kg; median dose, 6 mg/kg; high dose, 12 mg/kg). The positive control drug used was temozolomide (50 mg/kg, i.g., Days 1–5), the first line of glioma treatment, while the control group was treated with 0.5% CMC-Na solution as a control. To validate the NAMPT knockdown group, we established the following groups: a control group (vehicle control, i.g., once daily, n = 12), a shNAMPT-2 knockdown group (vehicle control, i.g., once daily, n = 12), and a shNAMPT-2 knockdown group treated with CAT3 (6 mg/kg, i.g., once daily, n = 12). The body weights of the nude mice were recorded every two days, and the tumor weights were recorded on the 14th day after the mice were sacrificed.
(§2) IHC was performed following standard protocols. Briefly, the standard protocol for Ki67 immunohistochemical staining involved tissue preparation, deparaffinization and rehydration, antigen retrieval, blocking, primary and secondary antibody incubations, visualization with DAB, counterstaining, mounting, microscopic examination, and image acquisition. To assess proliferation rates in tissue samples, the area of Ki67 expression was used for comparison in each group.

U87 orthotopic glioma = test system: U87 orthotopic glioma; design: method as in PMID 27495899; conditions: 6 mg/kg, 11 days of continuous treatment; cited from earlier work
shNAMPT-2 U87 xenograft = test: shNAMPT-2 U87 (NAMPT-knockdown) xenograft model; assay type: in vivo, nude mice (BALB/c-nude)
Experimental: as §1, §2

[2] = test system: shNAMPT-2 U87 orthotopic glioma; test: Orthotopic glioma model with shNAMPT-2 U87 cells, MRI; assay type: in vivo, nude mice (BALB/c-nude)
Experimental: For the orthotopic glioma model, six-week-old female athymic nude mice (BALB/c-nude) were obtained from GemPharmatech (Beijing, China). Anesthetize nude mice with tribromoethanol at a concentration of 20 mg/mL and a dosage of 0.2 mL/10 g body weight. U87 cells (shNAMPT-2, 5 × 10^5 cells) suspended in 5 μL PBS buffer were injected intracranially into nude mice using stereotaxic restraint. The location was bregma +1.0 mm, right lateral 2.0 mm, profundity 3.5 mm, and return to 3.0 mm. After 3 days, 6 mg/kg of CAT3 was orally administered once daily for 11 days. Intracranial tumors were viewed using MRI. The body weights of mice were monitored once every 2 or 3 days. The feeding and handling of animals have been approved by the Animal Care & Welfare Committee Institute of Materia Medica, CAMS & PUMC (Approval numbers: 00008485, 00008487, 00008963).
After 11 days of treatment, anatomical images of the intracranial tumor were acquired using an MRI scanner (PharmaScan 70/16 US, Bruker, Switzerland) on the nude mice. The parameters used in the scans to optimize gray/white matter contrast were as follows: a T2_TurboRARE, with TR/TE = 2795/35, 4 averages, 22 × 22 field-of-view, and 0.5 mm slice thickness. The scanning of all brains was completed in 25 sessions. The tumor volume was calculated using the sum of the areas in all images multiplied by the thickness of each slice (0.5 mm).

## COc1ccc2c3c(c4cc(OC)c(OC)cc4c2c1)CN1CCC[C@H]1C3 [CAT, (+)-Deoxytylophorinine]
U87 cells
  pIC50: 7.63
[1]
  blood–brain barrier penetration: effectively cross the blood–brain barrier

## O=C(/C=C/c1cccnc1)NCCCCC1CCN(C(=O)c2ccccc2)CC1 [FK866, (E)-Daporinad]
NAD^+ in U87 cells
  inhibitory effect on intracellular NAD^+ content: better inhibitory effect on intracellular NAD^+ content than PF403

## (13aS)-3-pivaloyloxyl-6,7-dimethoxyphenanthro[9,10-b] indolizidine [CAT3]
U87 xenograft; 6 mg/kg
  inhibitory effect in terms of tumor weight: 55.37%
  inhibitory effect based on tumor volume: ~58.41%
U87 xenograft; 12 mg/kg
  inhibitory effect in terms of tumor weight: 63.18%
  inhibitory effect based on tumor volume: ~67.59%
U87 xenograft; after treatment, U87 xenograft
  expression of Ki67 in tumor (IHC): reduced
U87 xenograft; due to gastrointestinal reaction
  body weight of the nude mice: decreased slightly in the first week and then gradually recovered
U87 orthotopic glioma
  inhibitory effect, orthotopic glioma model: ~40%
shNAMPT-2 U87 xenograft; 6 mg/kg, i.g., daily for 14 days
  inhibitory effect on cell proliferation by tumor volume or weight: no significant inhibitory effect
shNAMPT-2 U87 xenograft; effective dose (6 mg/kg), NAMPT-knockdown xenograft
  expression of Ki67 in tumor (IHC): not affected
shNAMPT-2 U87 xenograft; over 14 days, gastrointestinal side effects
  body weight: slight decrease in body weight
[2]; early and middle stages of treatment
  body weight of nude mice: slight decrease in the body weight
[2]; treatment group, 6 mg/kg orally once daily for 11 days, n = 12
  NAMPT knockdown tumor volume (MRI): 24.05 ± 13.99 mm^3
